Measurements: patent US20240181022A1, “AMURINS LYSINS, AND LYSIN-ANTIMICROBIAL PEPTIDE (AMP) CONSTRUCTS ACTIVE AGAINST GRAM-NEGATIVE BACTERIA” (priority 2021, published 2024)
Read-outs that look alike come from different tables or passages of the source. Where no end group is shown, it is not given here. [ ]: non-standard residue; d: D form.

Tests used:
Mycobacterium species = assay type: cell-based
M. kansasii = assay: MIC against M. kansasii; assay type: cell-based, Mycobacterium kansasii; details: M. kansasi (ATCC 12478); CAAT media
M. scrofulaceum = assay: MIC against M. scrofulaceum; assay type: cell-based, Mycobacterium scrofulaceum; details: M. scrofulaceum (ATCC 19981); CAAT media
M. intracellulare = assay: MIC against M. intracellulare; assay type: cell-based, Mycobacterium intracellulare; details: M. intracellulare (ATCC 13950); CAAT media
M. tuberculosis = assay type: cell-based, Mycobacterium tuberculosis
M. abscessus = assay: MIC against MDR M. abscessus isolates; assay type: cell-based, Mycobacterium abscessus; details: 7 days, AST media (CAAT)
Achromobacter spp. = assay: MIC by broth microdilution against Achromobacter spp.; assay type: cell-based; details: Tables 8-12
Method: (§1) MIC values were determined using a modification of the standard broth microdilution reference method defined by the Clinical and Laboratory Standards Institute (CLSI), CLSL. 2015. Methods for Dilution Antimicrobial Susceptibility Tests for Bacteria That Grow Aerobically; Approved Standard-10th Edition. Clinical and Laboratory Standards Institute, Wayne, PA. The modification was based on the replacement of Mueller Hinton Broth with either CAA media (with and without NaCl) or CAA supplemented with 2.5% human serum. MIC is the minimum concentration of peptide sufficient to suppress at least 80% of the bacterial growth compared to control.
(§2) The MICs for were determined as described below using the broth microdilution method for meropenem, GN370, AM1, AM2, and AM3. The results are shown below in Tables 8-12.

B. cenocepacia [1] = assay: MIC by broth microdilution against B. cenocepacia; assay type: cell-based, Burkholderia cenocepacia; details: B. cenocepacia isolates
Method: as §1
(§3) Based on these nine most prevalent strains, direct lytic agents, including GN370, AM1, AM2, and AM3, were evaluated against various isolates from each of the 9 strains. MICs and MBECs (Example 3) were determined, and a sputum inhibition test was conducted, as described below in Example 5.
as §2

B. multivorans = assay: MIC by broth microdilution against B. multivorans; assay type: cell-based, Burkholderia multivorans; details: B. multivorans isolates
Method: as §1, §3, §2

P. aeruginosa [2] = assay: Time-kill assay in cystic fibrosis patient sputum, P. aeruginosa; assay type: cell-based, Pseudomonas aeruginosa
From the text: (§4) Sputum from 5 cystic fibrosis patients was pooled. The resulting mixture was not filtered, as it was very dense and not amenable to sterilization by filtration. Sputum is known to be a complex mixture of DNA, carbohydrates, and lipids ([…], 2016). As used herein, the term “sputum” refers to the mucus present in the respiratory tract of an animal, such as a human. Sputum may increase in thickness due to the irritation or infection, including bacterial infection, and in some instances, may be expelled by the animal while coughing. In certain instances, cystic fibrosis may be characterized by the presence of a thick, sticky mucus or sputum present in the lungs of cystic fibrosis patients. The activity of GN370, AM1, AM2, AM3, and meropenem was determined in the sputum using a time-kill assay format as disclosed in Zhang et al., Antimicrobial peptide therapeutics for cystic fibrosis, Antimicrobial Agents Chemother. 2005; 49(7):2921-2927. […] Untreated controls were included in addition to pretreatment plating (t=0) for a baseline CFU determination. Activity was also determined in the absence of sputum for comparison to activity observed in the presence of sputum.

S. maltophilia = assay: Time-kill assay in cystic fibrosis patient sputum, S. maltophilia; assay type: cell-based, Stenotrophomonas maltophilia
From the text: as §4

P. aeruginosa [3] = assay: Serial passage resistance development study, P. aeruginosa; assay type: cell-based, Pseudomonas aeruginosa; details: P. aeruginosa strain CFS 1292, Day 28
A. ruhlandii = assay type: cell-based, Achromobacter ruhlandii
Method: (§5) The MBEC (after 2-hour treatments) was determined as described in Jones and Wozniak, PsI Produced by Mucoid Pseudomonas aeruginosa Contributes to the Establishment of Biofilms and Immune Evasion, Am. Soc. Microbiol. 2017, 8(3):e00864-17. Meropenem and tobramycin were included as controls and were both poorly active, with MBEC90 values of >256 μg/mL (data not shown).

A. dolens = assay type: cell-based, Achromobacter dolens
Method: as §5

B. cenocepacia [4] = assay type: cell-based, Burkholderia cenocepacia
Method: as §5

P. aeruginosa [5] = system: P. aeruginosa

## M[dR]L[dK]MA[dR][dR][dR]Y[dR]LP[dR][dR][dR]S[dR][dR]LFS[dR]TAL[dR]MHP[dR]N[dR]L[dR][dR]IM[dR]GGI[dR]F [AM2]
Mycobacterium species
  activity (MIC) against Mycobacterium species: highest activity
M. kansasii
  MIC: 2 µg/mL
M. scrofulaceum
  MIC: 16 µg/mL
M. intracellulare
  MIC: 0.5 µg/mL
M. tuberculosis; M. tuberculosis (ATCC 35817), (ADC, T) media
  MIC: 8 µg/mL
M. tuberculosis; M. tuberculosis strain TN8109_LB (MDR), 7H9 broth, 20 days
  MIC: 2 µg/mL
M. tuberculosis; M. tuberculosis strain TN8562_M33 (susc), 7H9 broth, 20 days
  MIC: 2 µg/mL
M. tuberculosis; M. tuberculosis strain TN10525_LL (MDR), 7H9 broth, 20 days
  MIC: 8 µg/mL
M. tuberculosis; M. tuberculosis strain TN10571_KY (MDR), 7H9 broth, 20 days
  MIC: 4 µg/mL
M. tuberculosis; M. tuberculosis strain TN12657_KQ15 (IS), 7H9 broth, 20 days
  MIC: 4 µg/mL
M. tuberculosis; M. tuberculosis strain TN13923_HD17 (susc), 7H9 broth, 20 days
  MIC: 8 µg/mL
M. tuberculosis; M. tuberculosis strain TN18349_W738 (susc), 7H9 broth, 20 days
  MIC: 2 µg/mL
M. tuberculosis; M. tuberculosis strain TN34503_001 (susc), 7H9 broth, 20 days
  MIC: 8 µg/mL
M. abscessus; M. abscessus strain BK51402
  MIC: 2 µg/mL
M. abscessus; M. abscessus strain BK51403 (ATCC 19977)
  MIC: 4 µg/mL
M. abscessus; M. abscessus strain BK51408
  MIC: 8 µg/mL
M. abscessus; M. abscessus strain BK55096
  MIC: 4 µg/mL
M. abscessus; M. abscessus strain BK55691
  MIC: 1 µg/mL
M. abscessus; M. abscessus strain BK58156
  MIC: 1 µg/mL
Achromobacter spp.
  activity (MIC) against Achromobacter spp.: variably active
B. cenocepacia [1]
  MIC50: > 128 µg/mL
  MIC90: > 128 µg/mL
B. multivorans
  MIC50: > 128 µg/mL
  MIC90: > 128 µg/mL
P. aeruginosa [2]; 10% CF sputum vs no sputum
  effect of sputum on antibacterial activity: not inhibited
P. aeruginosa [2]; absence of sputum, 1 hr
  Log10 CFU/mL of sputum: 2.3 Log10 CFU/mL of sputum
P. aeruginosa [2]; absence of sputum, 3 hr
  Log10 CFU/mL of sputum: 2.3 Log10 CFU/mL of sputum
P. aeruginosa [2]; absence of sputum, 24 hr
  Log10 CFU/mL of sputum: 2.3 Log10 CFU/mL of sputum
P. aeruginosa [2]; presence of 10% sputum, 1 hr
  Log10 CFU/mL of sputum: 2.3 Log10 CFU/mL of sputum
P. aeruginosa [2]; presence of 10% sputum, 3 hr
  Log10 CFU/mL of sputum: 2.3 Log10 CFU/mL of sputum
P. aeruginosa [2]; presence of 10% sputum, 24 hr
  Log10 CFU/mL of sputum: 2.3 Log10 CFU/mL of sputum
P. aeruginosa [2]; time-kill
  killing by 1 hour, maintained by 24 hours: complete killing
S. maltophilia; 10% CF sputum vs no sputum
  effect of sputum on antibacterial activity: none of GN370, AM1, AM2, and AM3 was inhibited
S. maltophilia; absence of sputum, 1 hr
  Log10 CFU/mL of sputum: 2.3 Log10 CFU/mL of sputum
S. maltophilia; absence of sputum, 3 hr
  Log10 CFU/mL of sputum: 2.3 Log10 CFU/mL of sputum
S. maltophilia; absence of sputum, 24 hr
  Log10 CFU/mL of sputum: 2.3 Log10 CFU/mL of sputum
S. maltophilia; presence of 10% sputum, 1 hr
  Log10 CFU/mL of sputum: 2.3 Log10 CFU/mL of sputum
S. maltophilia; presence of 10% sputum, 3 hr
  Log10 CFU/mL of sputum: 2.3 Log10 CFU/mL of sputum
S. maltophilia; presence of 10% sputum, 24 hr
  Log10 CFU/mL of sputum: 2.3 Log10 CFU/mL of sputum
S. maltophilia; time-kill
  killing by 1 hour, maintained at 24 hours: complete killing
P. aeruginosa [3]
  change in MIC over serial passage: no significant changes
A. ruhlandii
  MBEC50: 8 µg/mL
  MBEC90: 32 µg/mL
  MBEC Range: 1 to 32 µg/mL
A. dolens
  MBEC50: 4 µg/mL
  MBEC90: 8 µg/mL
  MBEC Range: 1 to 8 µg/mL
B. cenocepacia [4]
  MBEC50: 16 µg/mL
  MBEC90: 32 µg/mL
  MBEC Range: 2 to 32 µg/mL
P. aeruginosa [5]; P. aeruginosa isolates
  MIC50: 0.06 µg/mL
  MIC90: 0.25 µg/mL
  MIC Range: 0.016-0.5^
P. aeruginosa [5]; P. aeruginosa test organism of the sputum time-kill assay
  MIC: (MIC = 0.25)
P. aeruginosa [5]; all tested isolates, Tables 8-12
  activity (MIC) against P. aeruginosa isolates: highly active
